The text below walks through data of US10611740B2, “Aryl dihydro-2H-benzo[b][1,4]oxazine sulfonamide and related compounds for use as agonists of RORγ and the treatment of disease” (Lycera Corporation, priority 2015, dated 2020).

SMILES strings stand for the structures.

As usually defined, the EC50 is the concentration that produces a half-maximal response. A lower EC50 goes with higher potency in that assay.

One experiment deals with T1, RORγ-LBD (Homo sapiens, UniProt P51449).
T1 construct: made in house; host or cells: SF9 cells (baculovirus)
T1 sequence (P51449 269-508 limits assumed): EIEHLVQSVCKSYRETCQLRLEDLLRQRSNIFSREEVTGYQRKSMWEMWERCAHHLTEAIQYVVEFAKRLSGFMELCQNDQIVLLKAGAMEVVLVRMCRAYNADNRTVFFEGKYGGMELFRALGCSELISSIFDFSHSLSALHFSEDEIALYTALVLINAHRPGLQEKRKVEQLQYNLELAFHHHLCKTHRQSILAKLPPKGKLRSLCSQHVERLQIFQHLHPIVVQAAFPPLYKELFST
In words: RORγ-Ligand Binding Domain (LBD) TR-FRET Assay.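 On TR-FRET Assay Max Response: 665/615 nm ratio relative to signal without ursolic acid or compound set at 100.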 Format: biochemical. A digest of the protocol: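 SF9 lysate containing His-RORγ-LBD, ~3 nM final; coactivator peptide biotin-SRC1 LXXLL, 200 nM final; ursolic acid 2 μM final; DMSO 1% final; Tris pH 7.0 buffer with KCl, EDTA, DTT, BSA. TR-FRET format.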

The next experiment concerns the target T2, Gal4-RORγ-LBD (Homo sapiens, UniProt P51449).
T2 construct: expressed in transfected cells; host or cells: HEK-293 cells (pcDNA3.1neo plasmid)
T2 sequence (P51449 269-508 limits assumed): T1 sequence (P51449 269-508 limits assumed)
As to the kind of experiment: Gal4-RORγ Luciferase Reporter Assay in HEK-293T Cells. Format: cell-based. Particulars: HEK-293 cells. A digest of the protocol: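 In transfected HEK-293 cells (Gal4-RORγ-LBD, Gal4-luciferase), test agents with 2 μM ursolic acid were incubated overnight at 37 °C before luminescent detection. Values are relative to the ursolic-acid-free, compound-free signal (100).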
For orientation: Reporter assays use an easily measured gene product as a stand-in for the process of interest.

The mark [1] stands for this setting: luciferase reporter, with 2 μM ursolic acid.

In the case of `O=C(O)CC[C@H]1CN(S(=O)(=O)c2cccc(C(F)(F)F)c2)c2cc(-c3cccc(F)c3F)ccc2O1` [Compound 1, (S)-3-(6-(2,3-difluorophenyl)-4-((3-(trifluoromethyl)phenyl)sulfonyl)-3,4-dihydro-2H-benzo[b][1,4]oxazin-2-yl)propanoic acid], on RORγ-LBD, the 50% effective concentration (EC50) is less than 500 nM and the “TR-FRET Assay Max Response” value is “*** (The symbol “***” indicates a value in the range of greater than 150 to 200)”. Moreover, on Gal4-RORγ-LBD (setting [1]), the EC50 is less than 500 nM and the “Gal4-RORγ Assay Max Response” value is reported as “*** (The symbol “***” indicates a value in the range of greater than 150 to 200)”.

Consider `O=C(O)CC[C@H]1CN(S(=O)(=O)c2cccc(C(F)(F)F)c2)c2cc(-c3ccccc3Cl)ccc2O1` [Compound 2A, (S)-3-(6-(2-chlorophenyl)-4-((3-(trifluoromethyl)phenyl)-sulfonyl)-3,4-dihydro-2H-benzo[b][1,4]oxazin-2-yl)propanoic acid], for which, on RORγ-LBD, the EC50 was less than 500 nM and the “TR-FRET Assay Max Response” value is on record as “*** (The symbol “***” indicates a value in the range of greater than 150 to 200)”. At Gal4-RORγ-LBD (setting [1]), the concentration for a half-maximal effect (EC50) is less than 500 nM and the “Gal4-RORγ Assay Max Response” value is listed as “** (The symbol “**” indicates a value in the range of greater than 90 to 150)”.

For `O=C(O)CC[C@H]1CN(S(=O)(=O)c2cccc(C(F)(F)F)c2)c2cc(-c3ccnc(C(F)(F)F)c3)ccc2O1` [Compound 2AA, (S)-3-(4-((3-(trifluoromethyl)-phenyl)sulfonyl)-6-(2-(trifluoromethyl)pyridin-4-yl)-3,4-dihydro-2H-benzo[b][1,4]oxazin-2-yl)propanoic acid], the 50% effective concentration (EC50) was less than 500 nM at RORγ-LBD and greater than 10000 nM at Gal4-RORγ-LBD (setting [1]). Further, the “TR-FRET Assay Max Response” value at RORγ-LBD was “**** (The symbol “****” indicates a value greater than 200)”.

For the molecule `O=C(O)CC[C@H]1CN(S(=O)(=O)c2cccc(C(F)(F)F)c2)c2cc(-c3ccc(Cl)cc3Cl)ccc2O1` [Compound 2AB, (S)-3-(6-(2,4-dichlorophenyl)-4-((3-(trifluoromethyl)phenyl)-sulfonyl)-3,4-dihydro-2H-benzo[b][1,4]oxazin-2-yl)propanoic acid], at RORγ-LBD, the EC50 is less than 500 nM and the “TR-FRET Assay Max Response” value is “**** (The symbol “****” indicates a value greater than 200)”. Besides, at Gal4-RORγ-LBD (setting [1]), the 50% effective concentration (EC50) was greater than 10000 nM and the “Gal4-RORγ Assay Max Response” value is “** (The symbol “**” indicates a value in the range of greater than 90 to 150)”.

As to `COc1c(Cl)cccc1-c1ccc2c(c1)N(S(=O)(=O)c1cccc(C(F)(F)F)c1)C[C@H](CCC(=O)O)O2` [Compound 2AC, (S)-3-(6-(3-chloro-2-methoxy-phenyl)-4-((3-(trifluoromethyl)-phenyl)sulfonyl)-3,4-dihydro-2H-benzo[b][1,4]oxazin-2-yl)propanoic acid], at RORγ-LBD, the concentration giving a half-maximal response (EC50) is less than 500 nM and the “TR-FRET Assay Max Response” value is on record as “**** (The symbol “****” indicates a value greater than 200)”. For the same molecule, at Gal4-RORγ-LBD (setting [1]), the EC50 is less than 500 nM and the “Gal4-RORγ Assay Max Response” value was “*** (The symbol “***” indicates a value in the range of greater than 150 to 200)”.

As to `O=C(O)CC[C@H]1CN(S(=O)(=O)c2cccc(C(F)(F)F)c2)c2cc(-c3cc(F)ccc3F)ccc2O1` [Compound 2AD, (S)-3-(6-(2,5-difluorophenyl)-4-((3-(trifluoromethyl)-phenyl)sulfonyl)-3,4-dihydro-2H-benzo[b][1,4]oxazin-2-yl)propanoic acid], on RORγ-LBD, the EC50 was less than 500 nM and the “TR-FRET Assay Max Response” value is on record as “**** (The symbol “****” indicates a value greater than 200)”. On Gal4-RORγ-LBD (setting [1]), the EC50 is less than 500 nM and the “Gal4-RORγ Assay Max Response” value is “*** (The symbol “***” indicates a value in the range of greater than 150 to 200)”.

Consider `O=C(O)CC[C@H]1CN(S(=O)(=O)c2cccc(C(F)(F)F)c2)c2cc(-c3cc(F)cc(C(F)(F)F)c3)ccc2O1` [Compound 2AE, (S)-3-(6-(3-fluoro-5-(trifluoromethyl)phenyl)-4-((3-(trifluoromethyl)phenyl)-sulfonyl)-3,4-dihydro-2H-benzo[b][1,4]oxazin-2-yl)propanoic acid], for which, at RORγ-LBD, the half-maximal effective concentration (EC50) was less than 500 nM and the “TR-FRET Assay Max Response” value is “**** (The symbol “****” indicates a value greater than 200)”. Moreover, at Gal4-RORγ-LBD (setting [1]), the EC50 was less than 500 nM and the “Gal4-RORγ Assay Max Response” value is “*** (The symbol “***” indicates a value in the range of greater than 150 to 200)”.

On to `O=C(O)CC[C@H]1CN(S(=O)(=O)c2cccc(C(F)(F)F)c2)c2cc(-c3ccc(F)c(C(F)(F)F)c3)ccc2O1` [Compound 2AF, (S)-3-(6-(4-fluoro-3-(trifluoromethyl)phenyl)-4-((3-(trifluoromethyl)phenyl)-sulfonyl)-3,4-dihydro-2H-benzo[b][1,4]oxazin-2-yl)propanoic acid], for which the results for the half-maximal effective concentration (EC50) at RORγ-LBD and on Gal4-RORγ-LBD (setting [1]) were less than 500 nM and greater than 10000 nM, respectively. The “TR-FRET Assay Max Response” value at RORγ-LBD was “**** (The symbol “****” indicates a value greater than 200)”.

On to `O=C(O)CC[C@H]1CN(S(=O)(=O)c2cccc(C(F)(F)F)c2)c2cc(-c3c(F)cccc3Cl)ccc2O1` [Compound 2AG, (S)-3-(6-(2-chloro-6-fluoro-phenyl)-4-((3-(trifluoromethyl)-phenyl)sulfonyl)-3,4-dihydro-2H-benzo[b][1,4]oxazin-2-yl)propanoic acid], for which, on RORγ-LBD, the half-maximal effective concentration (EC50) was less than 500 nM and the “TR-FRET Assay Max Response” value was “**** (The symbol “****” indicates a value greater than 200)”. On Gal4-RORγ-LBD (setting [1]), the 50% effective concentration (EC50) was less than 500 nM and the “Gal4-RORγ Assay Max Response” value is on record as “*** (The symbol “***” indicates a value in the range of greater than 150 to 200)”.

For `CC(C)(O[C@@H]1Cc2ccc(-c3cc(F)cc(OC(F)F)c3)cc2N(S(=O)(=O)c2cccc(C(F)(F)F)c2)C1)C(=O)O` [Compound 83D, (R)-2-((7-(3-(difluoromethoxy)-5-fluorophenyl)-1-((3-(trifluoromethyl)phenyl)sulfonyl)-1,2,3,4-tetrahydroquinolin-3-yl)oxy)-2-methylpropanoic acid], on Gal4-RORγ-LBD (2 μM ursolic acid), the EC50 was in the range of 500 to 5000 nM and the “Gal4-RORγ Assay Max Response” value is on record as “** (The symbol “**” indicates a value in the range of greater than 90 to 150)”.

As to `O=C(O)CO[C@@H]1Cc2ccc(-c3cc(F)cc(OC(F)F)c3)cc2N(S(=O)(=O)c2cccc(C(F)(F)F)c2)C1` [Compound 83E, (R)-2-((7-(3-(difluoromethoxy)-5-fluorophenyl)-1-((3-(trifluoro-methyl)phenyl)sulfonyl)-1,2,3,4-tetrahydroquinolin-3-yl)oxy)acetic acid], at Gal4-RORγ-LBD (2 μM ursolic acid), the EC50 lay in the range of 500 to 5000 nM and the “Gal4-RORγ Assay Max Response” value is listed as “* (The symbol “*” indicates a value in the range of 25 to 90)”.

As for `CC(C)(O[C@H]1Cc2ccc(-c3cc(F)cc(OC(F)F)c3)cc2N(S(=O)(=O)c2cccc(C(F)(F)F)c2)C1)C(=O)O` [Compound 83F, (S)-2-((7-(3-(difluoromethoxy)-5-fluorophenyl)-1-((3-(trifluoromethyl)phenyl)sulfonyl)-1,2,3,4-tetrahydroquinolin-3-yl)oxy)-2-methylpropanoic acid], at Gal4-RORγ-LBD (2 μM ursolic acid), the EC50 was 500 to 5000 nM and the “Gal4-RORγ Assay Max Response” value is “* (The symbol “*” indicates a value in the range of 25 to 90)”.

Regarding `O=C(O)[C@]1(C[C@H]2CN(S(=O)(=O)c3cccc(C(F)(F)F)c3)c3cc(-c4cc(F)cc(OC(F)F)c4)ccc3O2)C[C@](O)(CO)C1` [Compound 87, (1r,3R)-1-(((S)-6-(3-(difluoromethoxy)-5-fluorophenyl)-4-((3-(trifluoromethyl)phenyl)sulfonyl)-3,4-dihydro-2H-benzo[b][1,4]oxazin-2-yl)methyl)-3-hydroxy-3-(hydroxymethyl)cyclobutane-1-carboxylic acid], on Gal4-RORγ-LBD (2 μM ursolic acid), the EC50 was in the range of 500 to 5000 nM and the “Gal4-RORγ Assay Max Response” value is recorded as “** (The symbol “**” indicates a value in the range of greater than 90 to 150)”.

With `O=C(O)[C@]1(C[C@H]2CN(S(=O)(=O)c3cccc(C(F)(F)F)c3)c3cc(-c4cc(F)ccc4F)ccc3O2)C[C@](O)(CO)C1` [Compound 89D, (1r,3R)-1-(((S)-6-(2,5-difluoro-phenyl)-4-((3-(trifluoromethyl)-phenyl)sulfonyl)-3,4-dihydro-2H-benzo[b][1,4]oxazin-2-yl)methyl)-3-hydroxy-3-(hydroxymethyl)-cyclobutane-1-carboxylic acid], at Gal4-RORγ-LBD (2 μM ursolic acid), the half-maximal effective concentration (EC50) is 500 to 5000 nM and the “Gal4-RORγ Assay Max Response” value is recorded as “** (The symbol “**” indicates a value in the range of greater than 90 to 150)”.

Take `O=C(O)[C@]1(C[C@H]2CN(S(=O)(=O)c3cccc(C(F)(F)F)c3)c3cc(-c4cc(F)ccc4F)ccc3O2)C[C@@](O)(CO)C1` [Compound 89E, (1s,3S)-1-(((S)-6-(2,5-difluoro-phenyl)-4-((3-(trifluoromethyl)-phenyl)sulfonyl)-3,4-dihydro-2H-benzo[b][1,4]oxazin-2-yl)methyl)-3-hydroxy-3-(hydroxymethyl)-cyclobutane-1-carboxylic acid]: on Gal4-RORγ-LBD (2 μM ursolic acid), the concentration giving a half-maximal response (EC50) lay in the range of 500 to 5000 nM and the “Gal4-RORγ Assay Max Response” value was “** (The symbol “**” indicates a value in the range of greater than 90 to 150)”.
